Results: patent publication US20230114808A1, “THERAPEUTIC RNA FOR PROSTATE CANCER” (BioNTech SE, priority 2019, published 2023)

Legend:
[1] = Respiratory safety (plethysmography) within GLP repeated dose toxicity studies (LPT No. 28864, 30283); assay type: in vivo, mice; conditions: positive control, 30 mg/kg b.w.
Method: Respiratory safety was included in repeated dose toxicity studies in mice using RNA DPs coding for TAAs in compliance with GLP (LPT No. 28864 and 30283, for study design see below). For example, plethysmography was tested in the study with RNA(LIP) (LPT No. 30283) with four animals/sex/group treated either with control buffer, a low and a high dose (5 and 50 μg of RNA formulated with 9 μg and 90 μg of liposomes, respectively). A positive control of animals treated with 30 mg Carbamyl-β-methylcholine chloride (bethanecol)/kg b.w. was also included. Plethysmography was performed one day after the 4th to 7th dosing. The tests included the evaluation of respiratory rate, tidal volume, minute volume, inspiratory time, expiratory time, peak expiratory and inspiratory flow, expiratory time, and airway resistance index.

[2] = test system: KLK2, PSA (KLK3), PAP (ACPP), HOXB13, and NKX3-1; test: IFN-γ ELISPOT of splenocytes restimulated with mRNA-electroporated BMDCs after RNA(LIP) vaccination; assay type: in vivo, A2/DR1 mice; conditions: 30 μg of each antigen RNA complexed with liposomes, IV, four to five vaccinations, R&D-quality RNA
Method: FIG. 18: Vaccination with W_pro1 antigen RNAs leads to antigen-specific T-cell responses. Splenocytes of intravenously vaccinated A2/DR1 mice (n=4-5/group) were restimulated for 20 h with BMDCs electroporated with the corresponding mRNAs as indicated. BMDCs electroporated with irrelevant mRNA were used as control (open symbols, grey bars). Effector function was measured using an IFN-γ ELISPOT assay. Symbols indicate mean values of triplicate wells from individual animals. Bars indicate median of all animals per group.
To obtain more information about the in vivo induction of antigen-specific T cells by the prostate specific antigens KLK2, PSA (KLK3), PAP (ACPP), HOXB13, and NKX3-1, RNA(LIP) products were prepared using RNA of R&D quality and liposomes of GMP-like quality. The RNA(LIP) products were injected intravenously into transgenic mice manipulated to express the human leukocyte antigens HLA-A*0201 and -DRB1*01. Using these mice the priming and expansion of T cells specific for HLA-restricted epitopes can be examined in vivo. A2/DR1 mice were vaccinated four to five times by injection of 30 μg of each antigen RNA complexed with liposomes, followed by isolation of spleen cells (5 days after last vaccination). The priming efficiency of the test items was evaluated by IFN-γ ELISPOT assay after restimulation with bone marrow derived dendritic cells (BMDC) electroporated with the respective mRNA or unrelated control mRNA.

[3] = test system: KLK2, KLK3 (PSA), ACPP (PAP), NKX3-1 or HOXB13; test: IFN-γ ELISPOT of splenocytes restimulated with peptide pools (Example 3); assay type: in vivo, A2/DR1 mice; conditions: 30 μg RNA(Lip) days 1, 8, 15, 22; splenocytes five days after final injection; unpaired t test
Source text: IFN-γ ELISPOT analysis of T-cell effectors from the spleen of mice immunized with lipoplex-formulated RNA coding for KLK2(aa 1-261), KLK3(aa 1-261), ACPP(aa 1-418), HOXB13(aa 1-284) or NKX3-1(aa 1-234). Splenocytes obtained five days after the final immunization were re-stimulated with either a peptide pool spanning the respective human protein, P2/P16/P17 peptides or with an irrelevant control peptide CMV pp65(495-504). Dots represent individual animals; horizontal bars indicate the mean±SD of the three animals.
At day 1, day 8, day 15, and day 22 A2/DR1 mice were immunized with 200 μL of a 0.15 mg/mL RNA(Lip) solution which corresponds to 30 μg RNA(Lip).
Splenocytes were obtained from the immunized A2/DR1 mice five days after the final of four RNA(Lip) injections, and in vivo induction ofantigen-specificTcells was determined by ELISPOT analysis. To test for the immunogenicity, isolated splenocytes were re-stimulated with a peptide pool (15 mers, overlapping by 11 amino acids) spanning the respective human proteins, KLK2, KLK3 (PSA), ACPP (PAP), NKX3-1 or HOXB13. […] On all ELISPOT plates, the negative control medium alone induced only a minimal spot count regardless of the animal the splenocytes had been derived from.

[4] = test system: KLK2, PSA (KLK3), PAP (ACPP), HOXB13, and NKX3-1; test: IFN-γ ELISPOT of splenocytes restimulated with mRNA-electroporated BMDCs after RNA(LIP) vaccination; assay type: in vivo, A2/DR1 mice; conditions: RNAs manufactured under GMP-conditions; study will be performed

CC(C[N+](C)(C)C)OC(N)=O.[Cl-] (stereo not drawn) [Carbamyl-β-methylcholine chloride]
pulmonary parameters (plethysmography) [1]: expected alterations

beta-S-ARCA(D1)-hAg-Kozak-ACPP-GS-P2P16-GS-MITD-FI-A30L70 [RBL040.1]
antigen-specific T-cell responses in vivo [2]: induced antigen-specific T-cell responses | IFN-γ+ spot count vs restimulation with control peptide CMV pp65 [3]: statistically higher | immunogenicity [4]: comparable to the results from earlier studies

beta-S-ARCA(D1)-hAg-Kozak-KLK2-GS-P2P16-GS-MITD-FI-A30L70 [RBL038.1]
antigen-specific T-cell responses in vivo [2]: induced antigen-specific T-cell responses | IFN-γ+ spot count vs restimulation with control peptide CMV pp65 [3]: statistically higher | immunogenicity [4]: comparable to the results from earlier studies

beta-S-ARCA(D1)-hAg-Kozak-KLK3-GS-P2P16-GS-MITD-FI-A30L70 [RBL039.1]
antigen-specific T-cell responses in vivo [2]: induced antigen-specific T-cell responses | immunogenicity [4]: comparable to the results from earlier studies

beta-S-ARCA(D1)-hAg-Kozak-sec-GS-HOXB13-GS-P2P16-GS-MITD-FI-A30L70 [RBL041.1]
antigen-specific T-cell responses in vivo [2]: induced antigen-specific T-cell responses | IFN-γ+ spot count vs restimulation with control peptide CMV pp65 [3]: statistically higher | immunogenicity [4]: comparable to the results from earlier studies

beta-S-ARCA(D1)-hAg-Kozak-sec-GS-NKX31-GS-P2P16-GS-MITD-FI-A30L70 [RBL045.1]
antigen-specific T-cell responses in vivo [2]: induced antigen-specific T-cell responses | immunogenicity [4]: comparable to the results from earlier studies
